Assay results reported in US8716316B2 (Hoffmann-La Roche Inc., priority 2009, dated 2014).

target: T1, human mGlu5a receptor (Homo sapiens, UniProt P41594); test: Intracellular Ca2+ mobilization assay; assay type: cell-based; settings: HEK293; maximal response in % of the maximal stimulatory effect obtained with saturating concentrations of L-glutamate; HEK-293 human mGlu5a cells, L-glutamate at EC20; read-out: Efficacy (%)
T1 construct: expressed in transfected cells
Protocol: A monoclonal HEK-293 cell line stably transfected with a cDNA encoding for the human mGlu5a receptor was generated; for the work with mGlu5 Positive Allosteric Modulators (PAMs), a cell line with low receptor expression levels and low constitutive receptor activity was selected to allow the differentiation of agonistic versus PAM activity. Cells were cultured according to standard protocols (Freshney, 2000) in Dulbecco's Modified Eagle Medium with high glucose supplemented with 1 mM glutamine, 10% (vol/vol) heat-inactivated bovine calf serum, Penicillin/Streptomycin, 50 μg/ml hygromycin and 15 μg/ml blasticidin (all cell culture reagents and antibiotics from Invitrogen, Basel, Switzerland).
About 24 hrs before an experiment, 5×10^4 cells/well were seeded in poly-D-lysine coated, black/clear-bottomed 96-well plates. The cells were loaded with 2.5 μM Fluo-4AM in loading buffer (1×HBSS, 20 mM HEPES) for 1 hr at 37° C. and washed five times with loading buffer. The cells were transferred into a Functional Drug Screening System 7000 (Hamamatsu, Paris, France), and 11 half logarithmic serial dilutions of test compound at 37° C. were added and the cells were incubated for 10-30 min. with on-line recording of fluorescence. Following this pre-incubation step, the agonist L-glutamate was added to the cells at a concentration corresponding to EC20 (typically around 80 μM) with on-line recording of fluorescence; in order to account for day-to-day variations in the responsiveness of cells, the EC20 of glutamate was determined immediately ahead of each experiment by recording of a full dose-response curve of glutamate.
Responses were measured as peak increase in fluorescence minus basal (i.e. fluorescence without addition of L-glutamate), normalized to the maximal stimulatory effect obtained with saturating concentrations of L-glutamate. Graphs were plotted with the % maximal stimulatory using XLfit, a curve fitting program that iteratively plots the data using Levenburg Marquardt algorithm. The single site competition analysis equation used was y=A+((B−A)/(1+((x/C)D))), where y is the % maximal stimulatory effect, A is the minimum y, B is the maximum y, C is the EC50, x is the log 10 of the concentration of the competing compound and D is the slope of the curve (the Hill Coefficient). From these curves the EC50 (concentration at which half maximal stimulation was achieved), the Hill coefficient as well as the maximal response in % of the maximal stimulatory effect obtained with saturating concentrations of L-glutamate were calculated.
A depression of the signal observed after addition of the EC20 concentration of L-glutamate was indicative of an inhibitory activity of the test compound.

T1 sequence (P41594 21-1180 isoform P41594-2 limits assumed): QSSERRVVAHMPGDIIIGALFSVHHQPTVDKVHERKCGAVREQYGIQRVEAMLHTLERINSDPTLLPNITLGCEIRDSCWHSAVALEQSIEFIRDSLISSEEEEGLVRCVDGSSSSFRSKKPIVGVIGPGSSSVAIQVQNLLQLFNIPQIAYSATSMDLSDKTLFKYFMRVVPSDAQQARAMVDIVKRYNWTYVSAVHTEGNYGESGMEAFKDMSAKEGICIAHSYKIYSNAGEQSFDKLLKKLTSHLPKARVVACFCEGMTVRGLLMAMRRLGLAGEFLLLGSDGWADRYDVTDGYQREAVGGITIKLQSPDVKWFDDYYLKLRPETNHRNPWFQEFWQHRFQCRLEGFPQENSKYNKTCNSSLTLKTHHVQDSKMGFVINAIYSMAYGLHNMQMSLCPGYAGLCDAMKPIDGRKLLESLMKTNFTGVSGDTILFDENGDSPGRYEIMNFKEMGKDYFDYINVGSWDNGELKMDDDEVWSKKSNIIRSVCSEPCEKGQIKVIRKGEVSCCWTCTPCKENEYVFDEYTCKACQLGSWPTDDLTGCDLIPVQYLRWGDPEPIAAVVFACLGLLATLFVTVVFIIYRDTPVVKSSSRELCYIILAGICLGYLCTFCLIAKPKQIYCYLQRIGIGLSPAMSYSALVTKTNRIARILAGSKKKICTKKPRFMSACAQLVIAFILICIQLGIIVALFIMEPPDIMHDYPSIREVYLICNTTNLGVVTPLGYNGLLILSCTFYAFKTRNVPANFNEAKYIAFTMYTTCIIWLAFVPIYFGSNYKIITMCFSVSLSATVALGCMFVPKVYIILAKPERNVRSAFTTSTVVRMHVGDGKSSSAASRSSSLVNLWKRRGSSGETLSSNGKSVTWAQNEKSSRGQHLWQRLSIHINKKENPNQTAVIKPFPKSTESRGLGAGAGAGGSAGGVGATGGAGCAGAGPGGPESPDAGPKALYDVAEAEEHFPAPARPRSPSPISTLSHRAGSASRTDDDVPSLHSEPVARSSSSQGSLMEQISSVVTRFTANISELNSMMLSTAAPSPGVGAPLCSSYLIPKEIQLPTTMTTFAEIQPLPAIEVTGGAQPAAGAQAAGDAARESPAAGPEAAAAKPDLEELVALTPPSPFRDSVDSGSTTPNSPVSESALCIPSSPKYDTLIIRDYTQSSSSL

SMILES | Emax [%]
O=C1N(Cc2ccc(C#Cc3ccccc3)cn2)CCN1c1ccccc1 [Example 37, 1-Phenyl-3-(5-phenylethynyl-pyridin-2-ylmethyl)-imidazolidin-2-one] | 84
CC1(C)CCC(=O)N(Cc2ccc(C#Cc3ccccc3)cn2)C1 [Example 38, 5,5-Dimethyl-1-(5-phenylethynyl-pyridin-2-ylmethyl)-piperidin-2-one] | 94
CN1CCCN(Cc2ccc(C#Cc3ccccc3)cn2)C1=O [Example 40, 1-Methyl-3-(5-phenylethynyl-pyridin-2-ylmethyl)-tetrahydro-pyrimidin-2-one] | 123
O=C1OCCN1Cc1ncc(C#Cc2ccccc2)cn1 [Example 42, 3-(5-Phenylethynyl-pyrimidin-2-ylmethyl)-oxazolidin-2-one] | 120
CN(c1ncc(C#Cc2ccccc2)cn1)C1CCOCC1 [Example 43, Methyl-(5-phenylethynyl-pyrimidin-2-yl)-(tetrahydro-pyran-4-yl)-amine] | 84
CN(c1ccc(C#Cc2ccccc2)cn1)C1CCOCC1 [Example 44] | 103

same assay, conditions: HEK-293 cells stably transfected with human mGlu5a receptor; pre-incubation 10-30 min with test compound, then L-glutamate at EC20 (typically around 80 μM); Fluo-4AM fluorescence; read-out: EC50 (nM) mGluR5 PAM

SMILES | EC50 [nM]
O=C1N(Cc2ccc(C#Cc3ccccc3)cn2)CCN1c1ccccc1 [Example 37, 1-Phenyl-3-(5-phenylethynyl-pyridin-2-ylmethyl)-imidazolidin-2-one] | 103
CC1(C)CCC(=O)N(Cc2ccc(C#Cc3ccccc3)cn2)C1 [Example 38, 5,5-Dimethyl-1-(5-phenylethynyl-pyridin-2-ylmethyl)-piperidin-2-one] | 161
CN1CCCN(Cc2ccc(C#Cc3ccccc3)cn2)C1=O [Example 40, 1-Methyl-3-(5-phenylethynyl-pyridin-2-ylmethyl)-tetrahydro-pyrimidin-2-one] | 140
O=C1OCCN1Cc1ncc(C#Cc2ccccc2)cn1 [Example 42, 3-(5-Phenylethynyl-pyrimidin-2-ylmethyl)-oxazolidin-2-one] | 631
CN(c1ncc(C#Cc2ccccc2)cn1)C1CCOCC1 [Example 43, Methyl-(5-phenylethynyl-pyrimidin-2-yl)-(tetrahydro-pyran-4-yl)-amine] | 195
CN(c1ccc(C#Cc2ccccc2)cn1)C1CCOCC1 [Example 44] | 338
